Results on one compound are retold here after patent US9868695B2 (priority 2014, dated 2018).

For one data set, the system named is Colo-205. Briefly: Antiproliferative activity, MTT assay, Colo-205. The format is cell-based. Conditions: Homo sapiens, 48 h. As for the experimental part:
(§1) Human colon cancer cell lines HCT-116 (NCI, passage no. 5) and Colo-205 116 (NCI, passage no. 3) were procured from National Cancer Institute, USA. HCT-116 and Colo-205 cells were grown in McCoy's 5A and RPMI growth medium respectively containing 10% FCS, 100 U penicillin and […] per mL medium. Cells were grown in CO2 incubator (Thermocon Electron Corporation, Houston, Tex.) at 37° C. with 95% humidity and 5% CO2 gas environment. Cells treated with tested materials were dissolved in DMSO while the untreated control cultures received only the vehicle (DMSO<0.2%). Cells were seeded in 96 well plates and exposed to tested compounds at various concentrations for 48 h time interval. MTT dye (2.5 mg/ml in PBS) was added 4 hrs priors to experiment termination. The plates were then centrifuged at 1500 rpm for 15 min and the supernatant was discarded, and MTT formazan crystals were dissolved in 150 μl of DMSO. The OD measured at 570 nm with reference wavelength of 620 nm.
(§2) The percentages of cell viability and growth inhibition were calculated using formulas: […]
Background: Formazan colour is commonly taken as a measure of viable cells.

Data set [1] deals with microtubules in HCT-116 cells. Briefly: Effect of compounds on microtubules, confocal microscopy. Type of data set: cell-based, Human. Conditions: 100 nM, 24 h, anti-α-tubulin staining, compared to control. As to the method:
For detection of tubulins, HCT-116 cells (1×10^5 cells/well) were seeded on to 18 mm square cover slips in six well plates in complete medium. […] After the treatment period, cells were fixed in 4% paraformaldehyde for 10 min at room temperature and permeabilized using 0.5% Triton-X in PBS for 5 min. The cells were blocked with 10% goat serum for 20 min at room temperature. Microtubules were detected with a monoclonal α-tubulin antibody (Sigma, Catalogue number: T9026) diluted 1:100 in 0.1% Triton X-100 in PBS for 1 h at room temperature and Alexa Fluor 488 conjugated secondary antibody (Invitrogen) diluted 1:500 in PBS for 1 h at room temperature. Cells were then washed three times in PBS and stained with 4′,6-diamidino-2-phenylindole (DAPI 1 μg/ml in PBS). The cover slips were mounted over glass slides and cells were imaged by a laser scanning confocal microscope (Olympus Fluoview FV1000). The promising candidates identified through P-gp screening and antiproliferative screening were further studied for tubulin polymerization inhibition activity.

A short description of data set [2]: Thermodynamic equilibrium solubility. The format is physicochemical. Conditions: 25 °C, thermodynamic from solid, 25±1° C. As for the experimental part:
The compounds were first dissolved in methanol to prepare stock solutions (100 and 1000 μg/mL). Different concentrations of stock solutions were pipetted into the 96-well plates and the solvent was evaporated to ensure that solid drug was present in the beginning of the experiment. Thereafter, 200 μl of the dissolution medium was added to the wells and 96-well plate was shaken horizontally at 300 rpm (Eppendorf Thermoblock Adapter, North America) for 4 h at room temperature (25±1° C.). The plates were kept overnight for equilibration of drug in medium. Later, the plates were centrifuged at 3000 rpm for 15 min (Jouan centrifuge BR4i). Supernatant (50 μl) was pipetted into UV 96-well plates (Corning® 96 Well Clear Flat Bottom UV-Transparent Microplate) for analyses with plate reader (SpectraMax Plus384) at λmax of 350 nm. The analyses were performed in triplicate for each compound. The solubility curve of concentration (μg/mL) vs absorbance was plotted to find out saturation point and the corresponding concentration was noted.

A further data set relates to Ehrlich solid tumor. The data set can be described thus: In vivo activity in Ehrlich solid tumor model. Set-up: species or system swiss mice. Conditions: i/p day 1-9, 1 0.75 mg/kg, 1g 1 mg/kg, 5-fluorouracil 22 mg/kg; for Mortality: dead/group size. As to the method: Ehrlich ascites carcinoma (EAC) cells were collected from the peritoneal cavity of the swiss mice (animal house of IIIM registered eith CPCSEA; registration no. 67/99/CPCSEA) weighing 18-23 gm, harbouring 8-10 days old ascitic tumor. 1×10^7 EAC cells were injected intramuscularly in the right thigh of 38 swiss male mice selected for the experiment on day 0. The next day, animals were randomized and divided into five groups. Four treatment groups contained 7 animals each and one control group contained 10 animals. Treatment was given as follows:
Group I: 1 (0.75 mg/kg, i/p) from day 1-9.
Group II: 1g (1 mg/kg, i/p) from day 1-9.
The third treatment group was treated with 5-fluorouracil (22 mg/kg, i/p) from day 1-9 and it served as positive control. The control group was similarly administered normal saline (0.2 ml, i/p) from day 1-9. On day 9 & 13, tumor bearing thigh of each animal was shaved and longest and shortest diameters of the tumor were measured with the help of vernier caliper. Tumor weight of each animal was calculated using the following formula.
The percent tumor growth inhibition was calculated on day 13 by comparing the average values of treated groups with that of control group. Tumor growth in saline treated control animals was taken to be 100%.

For a further data set, the system named is P-gp. The data set can be described thus: P-gp induction assay, rhodamine123 (Rh123) cell exclusion method in LS-180 cells. As to the method: All synthesized compounds were screened for their ability to induce P-gp by using rhodamine123 (Rh123) cell exclusion method. In this method, the P-gp function was evaluated in terms of rhodamine 123 (Rh123) accumulation and efflux. Briefly, the protocol used is as follows: Colorectal LS-180 cells (ECACC type, purchased from Sigma, Cat. no. 87021202, cell passage no. 52) were seeded at a density of 2×10^4 per well of 96 well plate and were allowed to grow for next 24 h. Cells were further incubated with the test compounds, and were diluted to a final concentration of 100 nM and rifampicin (standard) to a final concentration of 10 μM in complete media for 48 h. The final concentration of DMSO was kept at 0.1%. Drugs were removed and cells were incubated with HANKS buffer for 40 minutes before further incubation with HANKS buffer (containing 10 μM of Rh123 as a P-gp substrate) for 90 minutes. At the end of Rh123 treatment cells were washed four times with cold PBS followed by cell lysis for 1 h by using 200 μl of lysis buffer (0.1% Triton X-100 and 0.2 N NaOH). A total of 100 μl of lysate was used for reading fluorescence of Rh123 at 485 nm/529 nm. Samples were normalized by dividing fluorescence of each sample with total protein present in the lysate. For EC50 determination, different concentrations of compound were used to treat LS180 cells for 48 h. EC50 was determined by plotting fluorescence of Rh123 against concentration of compound.

The test system of the next data set is HCT-116. The data set can be described thus: Antiproliferative activity, MTT assay, HCT-116. The format is cell-based, Human. Conditions: 48 h. As to the method: as §1, §2

Where “and” joins values, the source holds several entries; their conditions need not be identical. Equal values may be shown once. Read-outs that look alike come from different tables or passages of the source.

As to `COc1cc2c(c(OC)c1OC)-c1ccc(Nc3ccc(Cl)c(C(F)(F)F)c3)c(=O)cc1[C@@H](NC(C)=O)CC2` [Compound 1g, N-[(7S)-1,2,3-Trimethoxy-9-oxo-10-[3-(trifluoromethyl)-4-chloro-phenylamino]-5,6,7,9-tetrahydrobenzo[a]heptalen-7-yl]acetamide], the figures for the IC50 in the data set on Colo-205 and with HCT-116 were 30 nM and 40 nM, respectively. Further, the “disruption of microtubule assembly” value in data set [1] is “remarkable disruption and loss of microtubules”. Moreover, the solubility (as a rule, the concentration that dissolves in the medium under given conditions) was over 1500 µg/mL in data set [2] (aqueous buffer, phosphate buffer saline, read-out: Solubility, PBS); over 1500 µg/mL in data set [2] (fassgf or other biorelevant, simulated intestinal fluid, read-out: Solubility, SIF); over 1500 µg/mL in data set [2] (simulated gastric fluid, read-out: Solubility, SGF); over 1500 µg/mL in data set [2] (water, read-out: Solubility, Water). For the same compound, the “Avg. body weights (g) of animal on days 1” value in the data set on Ehrlich solid tumor (day 1) was found to be 22.28 g. The “Avg. body weights (g) of animal on days 5” value in the data set with Ehrlich solid tumor (day 5) is recorded as 22.0 g. In the data set on Ehrlich solid tumor (day 9), the “Avg. body weights (g) of animal on days 9” value worked out at 21.28 g. Moreover, in the data set on Ehrlich solid tumor (day 13), the “Day 13 Avg. body weights” value is 21.66 g. Further, in the data set with Ehrlich solid tumor (day 13), the “Day 13 Avg. tumor weights” value turned out to be 778.0 mg. In addition, the “% Tumor Growth Inhibition” value in the data set with Ehrlich solid tumor (day 13 vs saline control) came out at 47.35%. The Mortality entry is “no mortality and 0/7” with Ehrlich solid tumor; “no mortality” with Ehrlich solid tumor (listed as 4o). In addition, in the data set with P-gp (LS180 cells, Rh123 accumulation, in words), the P-gp induction activity entry is “complete loss of P-gp induction activity”. In the data set with P-gp (compound 100 nM, 48 h, control = 100%, decrease indicates P-gp induction), the “% intracellular accumulation of Rh123 in LS180 cells” value worked out at 90%. Also, in the data set on P-gp (read-out: EC50, induction of P-gp, P-gp overexpressing LS-180 cells, 48 h), the EC50 (as a rule, the concentration giving half of the maximal effect) was 69 nM.
